According to US9339508B2, “Use of 3-methoxy-pregnenolone for the preparation of a drug for treating a traumatic brain injury” (MAPREG, priority 2003, dated 2016):

What was measured:
[1] = system: α-tubulin in rat hippocampus; assay: Microtubule dynamics in rat hippocampus (Tyr/Glu-Tub ratio, Acet-Tub); assay type: in vivo; details: 10 mg/kg subcutaneously, single administration
Excerpt: Mean±SEM, n=6 per group. **P<0.01, *P<0.5 vs sesame oil.
The effects produced by neurosteroids were compared with those produced by acute administration of the antidepressant drug fluoxetine (selective serotonin reuptake inhibitor SSRI).
Neurosteroids and 3-Methoxy-PREG (43B) Levels

[2] = system: CHI traumatized rats; assay: MRI of ventricular dilatation after Closed Head Injury (CHI); assay type: in vivo, rat; details: day 28 post-trauma, 20 mg/kg starting 24 hours post-trauma, compared to the vehicle
Excerpt: The model “Closed Head Injury” (CHI), also commonly known as “weight-drop”, “impact-acceleration” or Marmarou model, allows the induction of TBI on a closed skull and generates diffuse axonal injuries (Holtzer et al 2001). After anesthesia induction, the scalp was incised, a piece of metal (diameter 10 mm, height 3 mm)—designed to protect against skull fracture—was glued to the skull, between the lambda and bregma. The animal was then placed on a foam bed and a cylindrical metallic 230-g weight was dropped from 2 m through a metal tubing onto the disk. At the very moment of the impact, the head of the animal plunged briefly in the foam bed, which leads to an acceleration/deceleration of the brain inside the skull.
To determine lateral ventricle preservation, as well as lesion size (in the CCI model), T2-weighted MRI was performed 28 days after injury (D28). Acquisition was performed on a 7T Bruker AVANCE BIOSPEC—horizontal magnet, with rapid acquisition and relaxation enhancement (RARE).
MRI imaging of rats was performed at day 28 post-trauma. Based on MRI imaging, ventricular dilatation induced by CHI trauma was analyzed in CHI traumatized rats injected from 24 hours post-trauma with sesame oil (CHI-D0), or 3-methoxy-PREG (MAP4343) at 10 mg/kg (CHI-D1) or 20 mg/kg (CHI-D2).

[3] = system: 80 different CNS neurotransmitters receptors; assay: In vitro affinity screen on CNS receptors; assay type: binding; details: 10 μM; significant: inhibition higher than 50%
Excerpt: MAP4343 has been screened for in vitro affinity to 80 different CNS neurotransmitters receptors using various validated binding assays.

[4] = system: transgenic mice expressing the longest isoform of human tau protein; assay: RotaRod motor incoordination in transgenic tau mice; assay type: in vivo, mouse; details: subcutaneous implant releasing 0.38 mg per day for 90 days
Excerpt: FIG. 8: Effect of molecule 43B on the motor incoordination of transgenic mice expressing the longest isoform of human tau protein in their neurons. […] The maximum speed of rotation of the RotaRod drum before the […] falls is a measurement of motor coordination (higher values correspond to a better treatment effect).
In order to evaluate the therapeutic potential of 433 to treat Alzheimer-type neurodegenerative diseases, a homozygous transgenic line of mice, such as described by Götz (EMBO J. 1995; 14(7):1304-13), can be used.
These mice express the longest human tau protein isoform. They present symptoms of neurological dysfunction expressed as muscular weakness and a reduction in motor coordination which correlate histologically with the appearance of abnormal neurites and hyperphosphorylated tau proteins as is seen in Alzheimer's disease. This pathological phosphorylation decreases the affinity of tau for microtubules and favors its aggregation.
A breeding program was undertaken at Bicêtre and genotyping made it possible to select mice homozygous for the transgene. […] The implants released 0.38 mg of steroid per day for 90 days. The progression of motor incoordination was followed by repeated RotaRod tests.

[5] = system: MAP2; assay: Western blot of MAP2 in cortex and hippocampus after CCI; assay type: in vivo, rat; details: day 35, 20 mg/kg, first injection 2 h post-trauma, injured and non-injured cortex and hippocampus
Procedure: CCI was performed with an electromagnetic impact device as described (MyNeurolab, St. Louis, Mo.; Brody et al, 2007). Anesthesized rats were subjected to a single right lateral CCI, with the following parameters impact centered 4.0 mm anterior to lambda and 4.5 mm […] of midline, within the craniotomy of the animal. The impact was set at a velocity of 4 m/s with a sustained depression of 200 ms, using a 5.0 mm tip.
Samples were analyzed by Western-blot at day 35 post-trauma (D35) to evaluate the effects of MAP4343 on: MAP2 (the target of MAP4343 and a modulator of microtubule function), the post-synaptic markers PSD95 and spinophilin, the pre-synaptic marker synaptophysin, and the axonal growth/integrity marker […].
Western blot was performed on cortex and hippocampus of TBI-injured animals receiving the first injection of MAP4343 (at 10 mg/kg or 20 mg/kg) or vehicle (sesame oil) 2 h after injury.
The expression level of various neuronal brain markers of plasticity was measured at day 35 post-trauma by western-blots in the cortex and hippocampus of left uninjured and right injured cerebral hemispheres of CCI traumatized animals receiving either vehicle (sesame oil, CCI-D0) or 3-methoxy-PREG (MAP4343) at 10 mg/kg (CCI-D1) or 20 mg/kg (CCI-D2), with first MAP4343 injection 2 h post-trauma.

CO[C@H]1CC[C@@]2(C)C(=CC[C@H]3[C@@H]4CC[C@H](C(C)=O)[C@@]4(C)CC[C@@H]32)C1 [3-methoxy-PREG, 3β-methoxy-pregna-5-ene-20-one]
Acet-Tub (stable acetylated α-tubulin) [1]: significantly decreased | Tyr/Glu-Tub ratio ([1]; 3 h): significantly increased | ventricular dilatation [2]: significantly decreases the ventricular dilatation | affinity for tested CNS receptors [3]: no significant affinity for any tested receptor | motor dysfunction (RotaRod) [4]: beneficial effect on motor dysfunction | MAP2 expression [5]: strong increase of MAP-2
